Measurements as given in publication PMC8667898, “Topo II inhibition and DNA intercalation by new phthalazine-based derivatives as potent anticancer agents: design, synthesis, anti-proliferative, docking, and in vivo studies” (Journal of Enzyme Inhibition and Medicinal Chemistry, 2021).

What was measured:
[1] = tested on: HCT-116 cells (colorectal carcinoma); test: MTT anti-proliferative assay, HCT-116; type: cell-based, human
Procedure: Anti-proliferative activities of the target compounds were assessed via the standard MTT method[38–40] against three cancer cell lines, namely, hepatocellular carcinoma (HepG-2), colorectal carcinoma (HCT-116), and human breast adenocarcinoma (MCF-7). Doxorubicin was used in this test as a positive control.
Anti-proliferative activity of the synthesised compounds was estimated using the MTT assay protocol[8]^,[38–40] as shown in Supplementary data.
4.2.1. In vitro anti-proliferative activity against MCF-7, HepG-2 and HCT-116 The cells were cultured in RPMI-1640 medium supplemented with 10% fetal bovine serum (FBS), penicillin (100 unit /mL) and streptomycin sulphate (100µg/mL) at 37 °C in a 5% CO2 incubator.
Then, cells were dropped in 96-well plates at a density of 3-8 × 10^3 cells/well and incubated for two days in a 5% CO2 incubator at 37 °C. Then, the cells were treated with the synthesized compounds and the cell cultures were continued incubated for 24 h. However, Different concentrations of the compound under test (0.0, 5.0, 12.5, 25.0 and 50 mg/ml) were added to the cell monolayer. Then, (3-[4,5-dimethylthiazol-2-yl]- 2,5-diphenyltetrazolium bromide) MTT solution (20 µl, 5mg/mL) was added to each well and incubated for additional 4 h. The formed purple crystals of MTT-formazan were dissolved in 100 µl DMSO each well; the absorbance of each well was measured at 570 nm using a plate reader (EXL 800, USA). All of the compounds were tested three times. The relative cell viability in percentage was calculated. The results for IC50 values of the active compounds are […]
(§1) The data represented the mean of three independent experiments in triplicate and were expressed as means ± SD. […]
of the cells could survive. […]

Calf thymus DNA = test: DNA intercalation assay (DNA/methyl green colorimetric assay); type: binding; settings: three independent experiments
Procedure: as §1
4.2.2. DNA intercalation assay (DNA/methyl green colorimetric assay)
Affinity of some compounds for DNA-binding was examined in vitro using DNA/methyl green assay using doxorubicin as a positive control. In this test, a mixture of methyl green (20 mg) and Calf thymus DNA (10 mg) (Sigma– Aldrich) were suspended in 0.05 M TrisHCl buffer (100 mL, pH 7.5) containing 7.5 mM MgSO4. This mixture was stirred continuously for 24 h at 37 °C. Then, ethanolic solution of the test compounds was pitted into the wells of a 96-well microtiter tray at a concentration of 10, 100 and 1000 µM. The excess solvent was removed from each well under vacuum, with subsequent addition of 200 µL of the DNA/methyl green solution. The test samples were incubated for 24 h in dark at ambient temperature. After that, absorbance of each sample was determined at 642.5–645 nm. In this test, the methyl green dye reversibly binds to DNA to form persistent colored complex of DNA/methyl green. This color still stables at neutral pH. When the DNA intercalators were added, the methyl green was displaced from DNA with addition of H2O molecule to the dye resulting in formation of the colorless carbinol leading to a decrease in spectrophotometric absorbance. ΔA value (the difference between DNA/methyl green complex and free cabinol) provides the simplest means for detecting the DNA-binding affinity and relative binding strength. IC50′s were determined by linear regression of data plotted on a semi -log scale and the data were compared with doxorubicin as standard DNA intercalator . […]

human Topo II = target: T1, human Topo II (Homo sapiens, UniProt P11388); test: Topoisomerase II inhibitory activity (TopoGEN drug screening kit); type: biochemical; settings: three independent experiments
T1 construct: purchased TopoGEN, Inc., Columbus
Procedure: The activity of topoisomerase II was determined according to the reported procedure described by Patra et al.[42]. […]
4.2.3. Measurement of topoisomerase II activity
Compounds (8a, 8b, 9a, 9c, 9d, 12a, and 12b) were further evaluated to assess their Topo II inhibitory activities. In this test, Topo II drug screening kit (TopoGEN, Inc., Columbus) was utilized to determine the Topo II activity. […] A typical enzyme […]
reaction contained a mixture of human Topo II (2 µL), substrate super coiled pHot1 DNA (0.25 µg), 50 µg/mL test compound (2 µL), and assay buffer (4 µL). The reaction started upon incubation of the mixture in 37 °C for 30 min. The reaction was terminated by addition of 10% sodium dodecylsulphate (2 µL) and proteinase K (50 µg/mL) at 37 °C for 15 min. followed by incubation for 15 min at 37 °C.
Then, the DNA was run on 1% agarose gel in BioRad gel electrophoresis system for 1–2 h followed by staining with GelRedTM stain for 2 h and destained for 15 min with TAE buffer. The gel was imaged Via BioRad’s Gel DocTMEZ system. Both supercoiled and linear strands DNA were incorporated in the gel as markers for DNA-Topo II intercalators. The results of IC50 values were calculated using the GraphPad Prism version 5.0. Each reaction was performed in duplicate, and at least three independent determinations of each IC50 were made.

T1 sequence (P11388 whole entry): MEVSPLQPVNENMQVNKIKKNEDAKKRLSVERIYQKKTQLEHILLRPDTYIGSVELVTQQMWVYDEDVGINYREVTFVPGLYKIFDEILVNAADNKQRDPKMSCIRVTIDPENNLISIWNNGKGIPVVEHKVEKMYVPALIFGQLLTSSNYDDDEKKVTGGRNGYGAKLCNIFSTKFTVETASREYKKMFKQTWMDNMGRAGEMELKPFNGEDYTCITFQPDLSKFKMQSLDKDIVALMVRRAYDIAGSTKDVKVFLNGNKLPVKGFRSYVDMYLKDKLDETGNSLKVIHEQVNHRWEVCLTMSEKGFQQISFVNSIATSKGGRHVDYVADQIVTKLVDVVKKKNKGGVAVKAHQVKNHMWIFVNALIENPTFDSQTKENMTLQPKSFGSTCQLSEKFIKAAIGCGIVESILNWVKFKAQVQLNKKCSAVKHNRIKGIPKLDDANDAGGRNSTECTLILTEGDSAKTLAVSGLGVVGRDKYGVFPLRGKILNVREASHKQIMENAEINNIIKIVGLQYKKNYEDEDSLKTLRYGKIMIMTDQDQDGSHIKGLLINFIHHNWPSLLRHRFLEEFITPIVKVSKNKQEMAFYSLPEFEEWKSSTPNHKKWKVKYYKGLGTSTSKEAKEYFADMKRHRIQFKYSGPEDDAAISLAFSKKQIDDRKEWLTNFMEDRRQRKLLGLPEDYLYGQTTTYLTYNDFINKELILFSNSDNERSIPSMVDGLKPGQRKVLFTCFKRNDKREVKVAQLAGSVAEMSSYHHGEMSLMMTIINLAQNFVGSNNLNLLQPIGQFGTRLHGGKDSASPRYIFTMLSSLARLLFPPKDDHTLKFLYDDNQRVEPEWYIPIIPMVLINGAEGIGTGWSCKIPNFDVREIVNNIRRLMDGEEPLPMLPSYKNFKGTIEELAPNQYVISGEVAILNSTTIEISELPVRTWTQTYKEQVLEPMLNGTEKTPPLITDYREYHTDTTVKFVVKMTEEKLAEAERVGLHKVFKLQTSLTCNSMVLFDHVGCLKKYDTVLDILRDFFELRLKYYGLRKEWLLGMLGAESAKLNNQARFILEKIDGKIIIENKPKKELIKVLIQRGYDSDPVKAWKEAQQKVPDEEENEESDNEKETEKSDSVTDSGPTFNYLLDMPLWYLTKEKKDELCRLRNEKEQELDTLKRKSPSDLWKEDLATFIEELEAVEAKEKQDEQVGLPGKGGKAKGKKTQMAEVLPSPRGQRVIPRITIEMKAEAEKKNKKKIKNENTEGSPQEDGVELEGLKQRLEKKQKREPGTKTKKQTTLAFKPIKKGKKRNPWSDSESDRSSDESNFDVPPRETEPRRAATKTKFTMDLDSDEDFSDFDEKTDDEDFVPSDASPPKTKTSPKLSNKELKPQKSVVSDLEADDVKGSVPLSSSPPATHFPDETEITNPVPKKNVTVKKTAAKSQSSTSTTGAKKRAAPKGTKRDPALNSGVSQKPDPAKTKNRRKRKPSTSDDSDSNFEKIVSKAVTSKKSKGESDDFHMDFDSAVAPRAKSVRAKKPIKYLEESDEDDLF

IC50 (Calf thymus DNA): 26.2 ± 1.14 µM | IC50 (human Topo II): 7.02 ± 0.54 µM
Structure (SMILES): CCCc1nnc2c3ccccc3c(NN=Cc3ccc([N+](=O)[O-])cc3)nn12 [Compound 9d, 6-[2–(4-Nitrobenzylidene)hydrazineyl]-3-propyl-[1,2, 4]triazolo[3,4-a]phthalazine]
IC50 ([1]; Homo sapiens, HCT-116, MTT, mean ± SD of three separate experiments, read-out: In vitro Cytotoxicity IC50 HCT-116): 4.74 ± 0.15 µM | times more active than doxorubicin, HCT-116 ([1]; ratio of IC50 values vs doxorubicin): 2.03 times
